# In patent publication US20250154611A1, “SYSTEMS AND METHODS TO DETECT STEM CELL STRESS AND USES THEREOF” (Wayne State University, priority 2014, published 2025):
# Values joined by “and” are separate entries in the source; they are usually repeats but may differ in a detail not shown here. Equal values may be shown once.
# How the values were obtained:
# Type in all cases: cell-based, mouse
# JNK = test: phospho-JNK western blot in mESCs under 200 mM sorbitol; conditions: persisted throughout 1 hr
# Method: (§1) FIG. 14. […] Blots are representative of triplicate experiments. Phospho-proteins and their loading controls are grouped between black lines.
# FIG. 15. […] Blots are representative of triplicate experiments.
# Hyperosmotic activation of signaling enzymes. […] Zhong, 2010; Xie, 2011. […] To determine the kinetics of activation of these five kinases in the described system, mESCs were treated with 200 mM sorbitol for 1 hr. Expression levels of the activated (i.e., phosphorylated) enzymes were assayed by western blot analysis (FIG. 14), including phospho-p38MAPK, phospho-JNK, phospho-MEK1/2, and phospho-AKT (the downstream effector of PI3K signaling).
# Efficacy of enzyme inhibitors.
# MEK1/2 = test: phospho-MEK1/2 western blot in mESCs under 200 mM sorbitol; conditions: returned to baseline by 20 min
# Excerpt: as §1
# Hyperosmotic activation of signaling enzymes. […] Zhong, 2010; Xie, 2011. After screening 21 signaling kinases in 11 subfamilies using 14 inhibitors, 5 kinases in the mitogen activated protein kinase (MAPK) and PI3K families were identified as producing differentiation-priming effects in hyperosmotic conditions. To determine the kinetics of activation of these five kinases in the described system, mESCs were treated with 200 mM sorbitol for 1 hr. Expression levels of the activated (i.e., phosphorylated) enzymes were assayed by western blot analysis (FIG. 14), including phospho-p38MAPK, phospho-JNK, phospho-MEK1/2, and phospho-AKT (the downstream effector of PI3K signaling). Activated p38MAPK was 1st detected at 10 min of stimulation; activation persisted throughout 1 hr of stimulation. Similarly, activated JNK was 1st detected at 20 min of stimulation, and persisted throughout 1 hr of stimulation. Activated MEK1/2 and activated AKT were present endogenously at low levels at time zero; sorbitol stimulated higher activation levels of each.
# Rex1-RFP ESCs = test: Cell counts and doubling rate of Rex1-RFP ESCs at time zero and 3 days of sorbitol; conditions: 72 hr; for Doubling Rate: 0 mM 32.7 hr; for Relative Cell# (Total #, OUTSIDE BOX): time zero = 100, 0 mM = 460
# Excerpt: FIG. 28. Partial validation of the Theory of Compensatory Differentiation whereby stress decreases in size the normal levels of stem cell expansion and, in the nonmorbid stress range where doubling rates were near-normal, the diminished potency group that is enabled to differentiate is constant in size. […] A modified Venn diagram from previous modeling is presented here and analyzed with respect to supporting flow cytometry data for changes in potency subpopulation sizes derived from Table 8 and discussed in the text. For convenience, Table 8 is reproduced here:
# Finally it was tested whether endogenous Rex1 protein levels decreased commensurately with decreases in Rex1-RFP activity levels assayed in FIG. 24. Rex1-RFP ESCs were cultured for 3 days with 0-300 mM sorbitol and assayed by immunoblot for endogenous Rex1 levels normalized to ACTB loading controls and with time zero unstressed Rex1 set to 100 as a baseline level. Whereas stress-induced decrease in Rex1 activity in FIG. 24 were 20% and 70% at 200 mM and 300 mM sorbitol, respectively endogenous Rex1 protein losses were 30% and 70% at 200 mM and 300 mM, respectively (FIG. 27). Through the series from 200 mM to 300 mM sorbitol there was generally good agreement between activity level and endogenous protein level for Rex1 at 3 days of stress and with Rex1 protein loss at 1 day (Example 2). To correlate stress-induced Rex1 potency loss with stress-induced diminished cell growth rates, cell counts were performed at time zero and at 3 days over the same sorbitol dose range as in FIG. 27 and FIG. 24 and FIGS. 26A & 26B. […]; see Brief Description of the Figures for Table 8).
# The stress dose-dependent cell number of low potency cells can be determined by multiplying the fractional subpopulation size of cells with potency loss, which increases with stress and the decreasing cell numbers with increasing stress. This was done in Table 8 and compared with a previously published Venn diagram for compensatory differentiation (Puscheck, 2015, MB; Rappolee, 2013), modified to produce FIG. 28. In the stress-dose range where population size decreases, but increasing doubling rate is in a manageable range, the absolute size of the subpopulation of potency loss (intermediate and very low dim cells) is remarkably the same. At stress doses where very large doubling rate increases occur the subpopulation number with potency loss decreases, probably due to stem cell morbidity at these higher hyperosmotic stress levels (Example 2). Thus all three lines of evidence summarized here are consistent with the theory, but with limitations.
smiles,measurement,setting,value
OC[C@@H](O)[C@@H](O)[C@H](O)[C@@H](O)CO [sorbitol],time at which activated JNK was first detected,JNK,20 min
same,time of increased MEK1/2 activation,MEK1/2,≤ 10 min
same,% Dim + Intermediate × Cell# (INSIDE BOX cell number),Rex1-RFP ESCs; 200 mM,9893
same,Doubling Rate,Rex1-RFP ESCs; 200 mM,34.1 h
same,"Relative Cell# (Total #, OUTSIDE BOX)",Rex1-RFP ESCs; 200 mM,432
same,% Dim + Intermediate × Cell# (INSIDE BOX cell number),Rex1-RFP ESCs; 225 mM,9930
same,Doubling Rate,Rex1-RFP ESCs; 225 mM,35.6 h
same,"Relative Cell# (Total #, OUTSIDE BOX)",Rex1-RFP ESCs; 225 mM,407
same,% Dim + Intermediate × Cell# (INSIDE BOX cell number),Rex1-RFP ESCs; 250 mM,9968
same,Doubling Rate,Rex1-RFP ESCs; 250 mM,39.3 h
same,"Relative Cell# (Total #, OUTSIDE BOX)",Rex1-RFP ESCs; 250 mM,356
same,% Dim + Intermediate × Cell# (INSIDE BOX cell number),Rex1-RFP ESCs; 275 mM,7418
same,Doubling Rate,Rex1-RFP ESCs; 275 mM,51.4 h
same,% Dim + Intermediate × Cell# (INSIDE BOX cell number),Rex1-RFP ESCs; 300 mM,4540
same,Doubling Rate,Rex1-RFP ESCs; 300 mM,103.4 h
same,"Relative Cell# (Total #, OUTSIDE BOX)",Rex1-RFP ESCs; 300 mM,161 and 162
same,cell doubling rates,Rex1-RFP ESCs; 200-250 mM range,34.1 to 39.3 h
same,cell doubling rates,Rex1-RFP ESCs; 275-300 mM,51.4 to 103.4 h
